The results in this text go back to ChEMBL document CHEMBL3585314, “Initial development of a cytotoxic amino-seco-CBI warhead for delivery by prodrug systems” (Bioorg Med Chem, 2015).

Assay [1] concerns L1210. Nature of the assay: Cytotoxicity against mouse L1210 cells. Type of assay: functional, cell-based.
The subject of a further assay is LNCaP. Kind of assay: Cytotoxicity against human LNCAP cells assessed as inhibition of cell proliferation by MTS assay. The format is functional, cell-based. For orientation: Formazan colour is commonly taken as a measure of viable cells.
Assay [2] deals with Calf thymus DNA. Nature of the assay: Binding affinity to calf thymus DNA assessed as change in melting temperature treated with (5-amino-1-(chloromethyl)-1H-benzo[e]indol-3(2H)-yl)(5-(2-(dimethylamino)ethoxy)-1H-indol-2-yl)methanone at 0.2 equiv. per base pair at pH 7 after 1 hr by spectrometric analysis. Type of assay: nucleic-acid assay. Conditions: Bos taurus.
The test system of assay [3] is L1210. Kind of assay: Cytotoxicity against mouse L1210 cells after 3 days by coulter counter analysis. Type of assay: functional, cell-based. To be noted: L1210, 72 h.
Assay [4] concerns Calf thymus DNA. Kind of assay: Binding affinity to calf thymus DNA assessed as change in melting temperature at 6.9 DNA to compound ratio at pH 7.2 by spectrophotometric analysis. The format is nucleic-acid assay. Conditions: Bos taurus.
Assay [5] concerns L1210. Nature of the assay: Cytotoxicity against mouse L1210 cells after 24 hrs by MTT assay. Type of assay: functional, cell-based. To be noted: L1210, 24 h.

A word on the IC50: it is the point on the concentration scale where inhibition reaches its midpoint. As to `COC(=O)c1cc2c([nH]1)C(=O)C=C1N(C(=O)c3cc4cc(OC)c(OC)c(OC)c4[nH]3)CC3CC123` (configuration not stated) [DUOCARMYCIN SA], the IC50 in the assay with L1210 [1] was 0.01 nM. As for `CN(C)CCOc1ccc2[nH]c(C(=O)N3CC(CCl)c4c3cc(N)c3ccccc43)cc2c1` (configuration not stated), in the assay with LNCaP, the half-maximal inhibitory concentration (IC50) is 18 nM.

For orientation: ΔTm means the shift of the melting midpoint relative to a reference. On to `CN(C)CCOc1ccc2[nH]c(C(=O)N3CC4CC45C3=CC(=N)c3ccccc35)cc2c1` (configuration not stated), for which the ΔTm in the assay with Calf thymus DNA [2] turned out to be 13 °C.

With `CN(C)CCOc1ccc2[nH]c(C(=O)N3CC(CCl)c4c3cc(NC(=O)OC(C)(C)C)c3ccccc43)cc2c1` (configuration not stated), in the assay with LNCaP, the IC50 is 218 nM. Compound `COc1c(O)c2c(c3cc(C(=O)N4CCc5c4c(O)c(OC)c4[nH]c(C(=O)N6C[C@H]7C[C@@]78C6=CC(=O)c6[nH]cc(C)c68)cc54)[nH]c13)CCN2C(N)=O` [(+)-CC-1065] gave an IC50 with L1210 [3] of 0.024 nM. Further, in the assay on Calf thymus DNA [4], the ΔTm worked out at 31 °C. In the assay on L1210 [5], `COc1cc2[nH]c(C(=O)N3C[C@H]4C[C@@]45C3=CC(=O)c3[nH]c(C(=O)N4CCc6c4c(O)c(OC)c4[nH]c(C(=O)SC)cc64)cc35)cc2cc1O` yielded an IC50 of 0.005 nM.
